Data set [1] deals with A2780. The experiment in a line: Antiproliferative activity against human A2780 cells.
Data set [2] in a line: Solubility of compound at pH 7. Format: physicochemical. The following applies: buffer.
In data set [3] the target is Serine/threonine-protein kinase PLK3 (Homo sapiens, UniProt Q9H4B4). The experiment in a line: Inhibition of PLK3 assessed as [33P]gamma-ATP incorporation into substrate after 60 mins by gamma counting.
Data set [4] concerns the target Serine/threonine-protein kinase PLK1 (Homo sapiens, UniProt P53350). The experiment in a line: Inhibition of PLK1 assessed as [33P]gamma-ATP incorporation into substrate after 60 mins by gamma counting.
Data set [5] has as its target Serine/threonine-protein kinase PLK2 (Homo sapiens, UniProt Q9NYY3). The experiment in a line: Inhibition of PLK2 assessed as [33P]gamma-ATP incorporation into substrate after 60 mins by gamma counting.
Data set [6] can be described thus: Apparent permeability of the compound by PAMPA assay. Format: ADME.
The nature of data set [7]: Solubility of compound in 10% Tween 80. Format: physicochemical.
Data set [8] concerns Caco-2. The experiment in a line: Apparent permeability of the compound across human Caco2 cells. The data set is classed as ADME, cell-based.
Data set [9] in a line: Intrinsic clearance in human liver microsomes at 1 uM. Format: ADME, Microsome.
Data set [10] in a line: Intrinsic clearance in rat hepatocytes at 1 uM. Format: ADME, cell-based, Liver, Hepatocyte.
Data set [11] is described as follows: AUC (infinity) in overnight fasted CD1 nu/nu mouse at 10 mg/kg, iv. The data set is classed as ADME, organism-based. Also on record: time infinity, dose 10 mg/kg, route intravenous. The settings on record: plasma.
Data set [12] is described as follows: Oral bioavailability in overnight fasted CD1 nu/nu mouse at 10 mg/kg. The data set is classed as ADME, organism-based. The following applies: in vivo.
Data set [13] can be described thus: Volume of distribution at steady state in overnight fasted CD1 nu/nu mouse at 10 mg/kg, iv. Format: ADME, organism-based. Also on record: dose 10 mg/kg, route intravenous. The following applies: in vivo, read-out: Vdss.
A short description of data set [14]: AUC (infinity) in overnight fasted CD1 nu/nu mouse at 10 mg/kg, po. Also on record: time infinity, dose 10 mg/kg, route oral. The settings on record: plasma. Format: ADME, organism-based.
A short description of data set [15]: Half life in overnight fasted CD1 nu/nu mouse at 10 mg/kg, iv. The following applies: in vivo. Also on record: dose 10 mg/kg, route intravenous. The data set is classed as ADME, organism-based.
Data set [16] in a line: Cmax in overnight fasted CD1 nu/nu mouse at 10 mg/kg, po. Format: ADME, organism-based. Also on record: dose 10 mg/kg, route oral. The settings on record: in vivo.
A short description of data set [17]: Half life in overnight fasted CD1 nu/nu mouse at 10 mg/kg, po. The data set is classed as ADME, organism-based. Also on record: dose 10 mg/kg, route oral. The following applies: in vivo.
Data set [18] in a line: Clearance in overnight fasted CD1 nu/nu mouse at 10 mg/kg, iv. The data set is classed as ADME, organism-based. Also on record: dose 10 mg/kg, route intravenous. The settings on record: in vivo.
In data set [19] the test system is Mus musculus. The experiment in a line: Toxicity in CD1 nu/nu mouse xenografted with human HCT116 cells assessed as reversible body weight loss at 30 mg/kg, iv BID administered on days 1 to 2 in weekly scheduling for 3 cycles measured on day 30. Format: organism-based, HCT-116. Also on record: dose 30 mg/kg, route intravenous. The following applies: in vivo.
Data set [20] has as its system Mus musculus. The experiment in a line: Toxicity in CD1 nu/nu mouse xenografted with human HCT116 cells assessed as reversible body weight loss at 90 mg/kg, po once daily administered on days 1 to 2 in weekly scheduling for 4 cycles measured on day 15. The following applies: in vivo.
Data set [21] relates to HCT-116. The experiment in a line: Antitumor activity against human HCT116 cells xenografted in CD1 nu/nu mouse assessed as tumor growth inhibition at 90 mg/kg, po once daily administered on days 1 to 2 daily in weekly scheduling for 4 cycles measured on day 18. The following applies: HCT-116, po, 432 h, read-out: TGI.
The test system of data set [22] is CAL-51. The experiment in a line: Cell cycle arrest in human CAL51 cells at 0.1 to 1 uM after 24 hrs by flow cytometry. Format: functional, cell-based.

Converted amounts (≈) assume the structure as drawn. The source made the active and inactive calls. The rule behind the calls is not given here.

Chain of Serine/threonine-protein kinase PLK3 (Q9H4B4 whole entry): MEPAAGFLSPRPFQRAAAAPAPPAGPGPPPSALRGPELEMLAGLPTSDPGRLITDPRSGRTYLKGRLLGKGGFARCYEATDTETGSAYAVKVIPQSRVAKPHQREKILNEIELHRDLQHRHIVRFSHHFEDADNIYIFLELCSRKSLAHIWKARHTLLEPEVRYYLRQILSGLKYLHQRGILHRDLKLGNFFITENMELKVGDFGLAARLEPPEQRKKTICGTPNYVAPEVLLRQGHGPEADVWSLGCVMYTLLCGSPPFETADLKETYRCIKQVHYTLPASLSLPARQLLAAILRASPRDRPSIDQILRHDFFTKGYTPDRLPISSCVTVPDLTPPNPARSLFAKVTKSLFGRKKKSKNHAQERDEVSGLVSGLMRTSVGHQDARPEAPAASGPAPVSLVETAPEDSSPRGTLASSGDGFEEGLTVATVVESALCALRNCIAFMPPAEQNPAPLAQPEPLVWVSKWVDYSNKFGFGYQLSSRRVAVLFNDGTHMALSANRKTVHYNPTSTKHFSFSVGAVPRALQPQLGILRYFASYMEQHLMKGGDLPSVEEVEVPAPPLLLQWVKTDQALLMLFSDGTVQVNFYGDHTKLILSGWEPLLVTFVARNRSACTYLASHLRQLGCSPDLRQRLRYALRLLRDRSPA
Chain of Serine/threonine-protein kinase PLK1 (P53350 whole entry): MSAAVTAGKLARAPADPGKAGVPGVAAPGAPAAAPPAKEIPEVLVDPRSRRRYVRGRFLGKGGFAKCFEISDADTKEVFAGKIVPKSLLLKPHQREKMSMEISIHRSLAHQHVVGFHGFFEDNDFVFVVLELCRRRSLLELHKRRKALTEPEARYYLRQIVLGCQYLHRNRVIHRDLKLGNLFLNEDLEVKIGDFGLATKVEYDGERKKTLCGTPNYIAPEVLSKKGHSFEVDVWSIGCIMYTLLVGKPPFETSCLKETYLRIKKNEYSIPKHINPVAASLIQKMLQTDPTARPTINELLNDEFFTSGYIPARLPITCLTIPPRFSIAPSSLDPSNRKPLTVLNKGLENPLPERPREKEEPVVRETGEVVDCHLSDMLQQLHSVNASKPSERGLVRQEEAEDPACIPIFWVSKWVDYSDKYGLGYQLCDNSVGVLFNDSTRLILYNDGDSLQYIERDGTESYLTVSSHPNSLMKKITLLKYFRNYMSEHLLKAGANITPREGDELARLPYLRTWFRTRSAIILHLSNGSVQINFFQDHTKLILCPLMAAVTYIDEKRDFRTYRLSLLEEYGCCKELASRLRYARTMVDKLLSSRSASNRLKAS
Chain of Serine/threonine-protein kinase PLK2 (Q9NYY3 whole entry): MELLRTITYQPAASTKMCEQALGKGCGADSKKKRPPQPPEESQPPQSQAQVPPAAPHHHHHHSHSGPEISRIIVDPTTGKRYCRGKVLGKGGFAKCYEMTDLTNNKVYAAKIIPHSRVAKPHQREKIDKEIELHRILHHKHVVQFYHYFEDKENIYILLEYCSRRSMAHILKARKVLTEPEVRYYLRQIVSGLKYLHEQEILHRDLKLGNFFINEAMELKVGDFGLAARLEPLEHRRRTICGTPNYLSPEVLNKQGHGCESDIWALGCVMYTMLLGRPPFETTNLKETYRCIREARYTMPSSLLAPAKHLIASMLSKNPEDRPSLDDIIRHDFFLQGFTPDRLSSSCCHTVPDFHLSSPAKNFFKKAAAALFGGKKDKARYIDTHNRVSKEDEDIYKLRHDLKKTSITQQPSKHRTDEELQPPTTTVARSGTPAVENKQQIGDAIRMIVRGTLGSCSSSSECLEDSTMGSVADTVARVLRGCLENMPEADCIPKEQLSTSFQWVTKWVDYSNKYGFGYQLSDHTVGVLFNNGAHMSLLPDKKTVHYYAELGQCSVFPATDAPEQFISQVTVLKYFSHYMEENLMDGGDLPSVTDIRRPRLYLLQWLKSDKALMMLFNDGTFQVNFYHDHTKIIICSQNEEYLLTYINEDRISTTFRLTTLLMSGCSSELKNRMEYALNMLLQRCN

`CCN(CC)CCN(C)c1ccc(OC(F)(F)F)c(Nc2ncc3c(n2)-c2c(c(C(N)=O)nn2C)CC3)c1`: the IC50 in data set [1] was 1140 nM; in [3], more than 10000 nM; in data set [4], 60 nM; in data set [5], more than 10000 nM. In [2], this compound gave a solubility of 162 µM (≈ 86.3 µg/mL).
For `CN1CCN(c2ccc(OC(F)(F)F)c(Nc3ncc4c(n3)-c3c(c(C(N)=O)nn3CCN)CC4)c2)CC1`, the IC50 in [1] was 1310 nM; in [3] it was more than 10000 nM; in data set [4], 33 nM; in data set [5], more than 10000 nM. This compound also showed a solubility in [2] of 202 µM (≈ 107 µg/mL). The Papp in [6] is 5 ×10⁻⁶ cm/s.
Regarding `CN(C)CCCn1nc(C(N)=O)c2c1-c1nc(Nc3cc(N4CCN(C)CC4)ccc3OC(F)(F)F)ncc1CC2`, the IC50 in data set [1] was 2500 nM; in data set [3] it was more than 10000 nM; in [4] it was 279 nM; in [5] it was more than 10000 nM. Moreover, in [2], the solubility amounted to 200 µM (≈ 115 µg/mL).
`CN1CC=C(c2ccc(OC(F)(F)F)c(Nc3ncc4c(n3)-c3c(c(C(N)=O)nn3C)CC4)c2)CC1`: the IC50 in data set [1] was found to be 34 nM; in [5], 2250 nM. The solubility was 148 µM (≈ 73.9 µg/mL) in [2] and 3700 µg/mL (≈ 7.41 mM) in data set [7]. Further, the Papp entry was “permeable” in [8] and 46.4 ×10⁻⁶ cm/s in [6]. The CLint scaled at 1 µM was determined as 24.5 mL/min/kg in data set [9] and 638 mL/min/kg in data set [10].
For the compound `CN1CCN(c2ccc(OC(F)(F)F)c(Nc3ncc4c(n3)-c3c(c(C(N)=O)nn3CCO)CC4)c2)CC1.Cl`, the AUC(0-inf) came to 8.57 µM·h in data set [11] and 2.04 µM·h in data set [14]. This compound gave a bioavailability in [12] of 24%. Besides, the Vd in data set [13] came to 1.71 L/kg. Moreover, the half-life was 0.89 h in [15] and 1.6 h in data set [17]. Also, the concentration in [16] peaked (Cmax) at 640 nM. Moreover, the clearance in data set [18] was 39.3 mL/min/kg.
Turning to `CN1CCN(c2ccc(OC(F)(F)F)c(Nc3ncc4c(n3)-c3c(c(C(N)=O)nn3C)CC4)c2)[C@@H](CO)C1`, the IC50 in data set [1] was 598 nM; in [5] it was more than 10000 nM. This compound also registered a solubility in data set [2] of 121 µM (≈ 64.4 µg/mL).
For `CN1CCN(c2ccc(OC(F)(F)F)c(Nc3ncc4c(n3)-c3c(c(C(N)=O)nn3C)CC4)c2)[C@H](CO)C1`, the IC50 is 1620 nM in [1] and 1490 nM in [5]. For the same compound, in data set [2], the solubility is 166 µM (≈ 88.4 µg/mL).
Turning to `CN1CCC(C(=O)Nc2ccc(OC(F)(F)F)c(Nc3ncc4c(n3)-c3c(c(C(N)=O)nn3C)CC4)c2)CC1`, the IC50 in data set [1] amounted to 1350 nM; in data set [5] it was 1500 nM. The solubility in data set [2] was found to be 33 µM (≈ 18 µg/mL).
With `Cn1nc(C(N)=O)c2c1-c1nc(Nc3cc(NC(=O)[C@@H]4CCCN4)ccc3OC(F)(F)F)ncc1CC2`, the IC50 in data set [1] was found to be 348 nM; in data set [5], 1450 nM. This compound returned a solubility in data set [2] of 79 µM (≈ 40.8 µg/mL).
Consider `CN1CCN(c2ccc(OC(F)(F)F)c(Nc3ncc4c(n3)-c3c(c(C(N)=O)nn3CCOC3CCCCO3)CC4)c2)CC1` (stereo not given), for which the solubility in [2] is 35 µM (≈ 21.6 µg/mL). In addition, the IC50 in data set [5] is more than 10000 nM.
On to `CN1CCC(c2ccc(OC(F)(F)F)c(Nc3ncc4c(n3)-c3c(c(C(N)=O)nn3C)CC4)c2)CC1`, for which the figures for the solubility in data set [2] and in [7] were 203 µM (≈ 102 µg/mL) and 3800 µg/mL (≈ 7.58 mM), respectively. For the same compound, the Papp result in [8] was “permeable”; in [6] it was 36.8 ×10⁻⁶ cm/s. Also, the CLint scaled at 1 µM in [9] is 15.9 mL/min/kg; in data set [10], 603 mL/min/kg. Moreover, the IC50 in data set [3] was more than 10000 nM; in data set [4] it was 6 nM; in data set [5], more than 10000 nM.
Regarding `CN1CCN(CCCNc2ccc(OC(F)(F)F)c(Nc3ncc4c(n3)-c3c(c(C(N)=O)nn3C)CC4)c2)CC1`, the IC50 in [1] came to 1640 nM; in data set [5] it was 1360 nM. The compound further displayed a solubility in data set [2] of 186 µM (≈ 104 µg/mL).
With `CN1CCN(c2ccc(OC(F)(F)F)c(Nc3ncc4c(n3)-c3c(c(C(N)=O)nn3C)CC4)c2)CC1`, the Papp result in data set [8] is “permeable”. For the same compound, the CLint scaled at 1 µM in data set [10] worked out at 600 mL/min/kg. Further, the Activity in [19] and in data set [20] was 14% in each case. The inhibition in vivo at 90 mg/kg in [21] was 59%.
On to `CN1CCN(c2ccc(OC(F)(F)F)c(Nc3ncc4c(n3)-c3c(c(C(N)=O)nn3CCO)CC4)c2)CC1`, for which the result in data set [22] was Active.
Consider `CN1CCN(c2ccc(OC(F)(F)F)c(Nc3ncc4c(n3)-c3c(c(C(N)=O)nn3CCCN)CC4)c2)CC1`, for which the IC50 in data set [1] is 846 nM; in data set [3], more than 10000 nM; in data set [4] it was 52 nM; in [5], more than 10000 nM. For the same compound, the solubility in [2] worked out at 186 µM (≈ 101 µg/mL). Moreover, the apparent permeability coefficient (Papp) in data set [6] was 4 ×10⁻⁶ cm/s.

The values above are taken from ChEMBL document CHEMBL1773059, “NMS-P937, a 4,5-dihydro-1H-pyrazolo[4,3-h]quinazoline derivative as potent and selective Polo-like kinase 1 inhibitor” (Bioorg Med Chem Lett, 2011).
